Molecules are shown by their SMILES.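 Method: 48-hour compound exposure of cells in 96-well plates, five concentrations, linear interpolation of endpoints. Abbreviation: GI50, concentration required for 50% inhibition of growth. TGI: total growth inhibition.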

Test systems include A498 renal; HOP-62 NSCLC; OVCAR-3 ovarian; OVCAR-4 ovarian; OVCAR-8 ovarian; T-47D breast; U251 CNS; HS 578T breast; SK-MEL-28 melanoma; SW-620 colon.
Common to all, as to assay: NCI tumour cell line growth inhibition, 48 h

As for `O=[N+]([O-])c1ccc2nc(/C=C(\O)c3ccc(Cl)cc3)c(/C=C(\O)c3ccc(Cl)cc3)nc2c1`, the TGI in the assay on A498 renal, in the assay with HOP-62 NSCLC, in the assay with OVCAR-3 ovarian, in the assay on OVCAR-4 ovarian, with OVCAR-8 ovarian and in the assay with T-47D breast was > 100 µM each time. For the same compound, in the assay on U251 CNS, the TGI is > 100 µM.

Consider `O=c1nc2ccc3sc4ccccc4c(=O)c3n2c(=O)[nH]1`, for which the TGI in the assay on A498 renal, with HOP-62 NSCLC, in the assay with HS 578T breast, with OVCAR-3 ovarian, with OVCAR-4 ovarian and in the assay on OVCAR-8 ovarian was > 100 µM throughout. In addition, the TGI in the assay with SK-MEL-28 melanoma, in the assay on SW-620 colon and with U251 CNS was > 100 µM throughout.

For the compound `NC1c2c(Cl)sc(Cl)c2C(=O)C1O` (stereo not drawn), the TGI in the assay with A498 renal was > 100 µM; in the assay with HS 578T breast, > 100 µM; in the assay with OVCAR-3 ovarian it was > 100 µM; with OVCAR-4 ovarian it was 50.4 µM; with OVCAR-8 ovarian it was 51.8 µM; in the assay with SW-620 colon it was 50.5 µM. Moreover, the TGI in the assay on T-47D breast was > 100 µM; in the assay with U251 CNS, 60 µM.

As to `CS(=O)(=O)[O-].CS(=O)(=O)[O-].NC1CCCCC1N.[Pt+4]` (stereo not drawn), the GI50 in the assay on A498 renal was > 100 µM; with HOP-62 NSCLC, > 100 µM; in the assay on OVCAR-3 ovarian, > 100 µM; with OVCAR-4 ovarian, > 100 µM; in the assay with OVCAR-8 ovarian, > 74 µM; in the assay on SK-MEL-28 melanoma, 71.6 µM. Besides, the GI50 in the assay with SW-620 colon is 13 µM; in the assay with U251 CNS it was > 87.2 µM. Further, the TGI in the assay on A498 renal, with HOP-62 NSCLC, in the assay with OVCAR-3 ovarian, with OVCAR-4 ovarian, with OVCAR-8 ovarian and with SK-MEL-28 melanoma was > 100 µM throughout. Also, the TGI in the assay with SW-620 colon and with U251 CNS was > 100 µM throughout.

As for `CCN(CC)/[N+]([O-])=N/O`, the TGI in the assay with A498 renal, in the assay on HOP-62 NSCLC, in the assay with OVCAR-3 ovarian, in the assay on OVCAR-8 ovarian, in the assay on SK-MEL-28 melanoma and in the assay with SW-620 colon was > 100 µM in each case.

As for `O=C(NCCCCCCO)c1cccc2cc3ccccc3nc12`, the TGI in the assay with HOP-62 NSCLC was 32.9 µM; with HS 578T breast, 71.9 µM; in the assay with OVCAR-3 ovarian, 36.5 µM; in the assay with OVCAR-4 ovarian, 66.2 µM; in the assay on OVCAR-8 ovarian, > 100 µM; with SK-MEL-28 melanoma it was 42.5 µM. Also, the TGI in the assay on SW-620 colon was > 100 µM; in the assay on T-47D breast it was 26 µM; in the assay with U251 CNS, > 100 µM.

In the case of `C=C(C)[C@@H]1CC[C@]2(CO)CC[C@]3(C)[C@H](CC[C@@H]4[C@@](C)(CCCN)[C@H](C(=C)C)CC[C@]43C)[C@@H]12`, the GI50 in the assay on A498 renal was 1.74 µM; in the assay on OVCAR-3 ovarian, 1.59 µM; with SK-MEL-28 melanoma it was 1.75 µM; with SW-620 colon it was 1.75 µM. In addition, the TGI in the assay with A498 renal was determined as 3.15 µM; in the assay with OVCAR-3 ovarian, 2.96 µM; with SK-MEL-28 melanoma, 3.14 µM; in the assay with SW-620 colon, 3.51 µM.

As for `COc1ccccc1NC(=S)N/N=C/c1ccccn1`, the TGI is 5.04 µM in the assay on A498 renal; 25.6 µM in the assay on HOP-62 NSCLC; > 46.4 µM in the assay on HS 578T breast; > 100 µM in the assay on OVCAR-4 ovarian; 12.9 µM in the assay with OVCAR-8 ovarian; > 46.4 µM with SK-MEL-28 melanoma. For the same compound, the results for the TGI in the assay on SW-620 colon, with T-47D breast and in the assay on U251 CNS were > 46.4 µM, 1.95 µM and 12.5 µM, respectively.

`CC(C)(Cc1ccccc1)N1C(=O)N1C(C)(C)Cc1ccccc1`: the TGI with A498 renal, with HS 578T breast, in the assay on OVCAR-3 ovarian, in the assay on OVCAR-4 ovarian, with OVCAR-8 ovarian and with SK-MEL-28 melanoma was > 100 µM each time. The TGI in the assay on SW-620 colon, in the assay with T-47D breast and with U251 CNS was > 100 µM each time.

As for `C[C@]12CC[C@H]3[C@@H](CCC4=C(Br)C(=O)C=C[C@@]43O)[C@@H]1CCC2=O`, the TGI with A498 renal is > 100 µM; with HOP-62 NSCLC, > 100 µM; with HS 578T breast it was > 100 µM; with OVCAR-3 ovarian it was > 100 µM; in the assay with OVCAR-4 ovarian, > 100 µM; in the assay on OVCAR-8 ovarian, 80.2 µM. For the same compound, the TGI with SK-MEL-28 melanoma, in the assay with SW-620 colon and in the assay on U251 CNS was > 100 µM in each case.

Consider `CCOC(=O)CCC(NC(=O)OCc1ccccc1)C(=O)NC(CCC(=O)OCC)C(=O)NC(CCC(=O)OCC)C(=O)NNC(=O)OC(C)(C)C` (stereo not drawn), for which the TGI in the assay on A498 renal, in the assay on HOP-62 NSCLC, in the assay on HS 578T breast, in the assay on OVCAR-8 ovarian, with SK-MEL-28 melanoma and in the assay with SW-620 colon was > 100 µM throughout. For the same compound, the TGI in the assay on U251 CNS was > 100 µM.

In the case of `O=[N+]([O-])c1ccc2c(c1)n1c(N3CCCC3)[n+]3ccccc3c1c1c3cccc[n+]3c(N3CCCC3)n21`, the TGI in the assay on A498 renal, in the assay on HS 578T breast, in the assay on OVCAR-3 ovarian, in the assay with OVCAR-4 ovarian, with OVCAR-8 ovarian and with SK-MEL-28 melanoma was > 100 µM each time. For the same compound, the TGI in the assay on SW-620 colon, in the assay with T-47D breast and with U251 CNS was > 100 µM each time.

As to `COc1cccc(NC(=O)CC(=O)N2N=C(C)C(N=Nc3ccc(C(=O)O)cc3)C2=O)c1` (stereo not drawn), the TGI with HOP-62 NSCLC, with HS 578T breast, in the assay on OVCAR-3 ovarian, in the assay on OVCAR-4 ovarian, with OVCAR-8 ovarian and with SK-MEL-28 melanoma was > 100 µM in each case. Besides, the TGI with SW-620 colon and in the assay with T-47D breast was > 100 µM throughout.

Take `COc1cc2oc(=O)cc(C)c2cc1OC`: the TGI in the assay on A498 renal, in the assay on HOP-62 NSCLC, in the assay on HS 578T breast, in the assay with OVCAR-3 ovarian, with OVCAR-4 ovarian and with OVCAR-8 ovarian was > 100 µM each time. Moreover, the TGI in the assay with SK-MEL-28 melanoma, with SW-620 colon and in the assay with U251 CNS was > 100 µM each time.
